Source: paper PMC9254699 (Biomaterials science, 2021)
One block for each compound: values may come before it. No end group written: not given here.

Key:
ALK5 (TβRI) = details: cited from earlier work
[1] = deemed target-related; cited from earlier work
off-target kinases = details: cited from earlier work
activin receptor ALK4 = details: cited from earlier work
activin receptor ALK7 = details: cited from earlier work
CK1δ = details: cited from earlier work
RIPK2 = details: cited from earlier work
p38MAPK = details: cited from earlier work
TGF-β1 [2] = target: T1, TGF-β1 (Homo sapiens, UniProt P01137); details: cited from earlier work
TGF-β1 [3] = target: T1, TGF-β1; details: cited from earlier work; remark: listed apart in the source
TGF-β1 [4] = target: T1, TGF-β1; assay: surface plasmon resonance; format: binding; details: for kon: read-out: association rate constant ka; for koff: read-out: dissociation rate constant kd
[5] = tested on: mouse T-lymphocyte HT-2 cells; assay: HT-2 T-lymphocyte proliferation assay; format: cell-based
[6] = tested on: human umbilical vein endothelial cells (HUVECs); assay: HUVEC proliferation assay; format: cell-based; details: HUVEC (Fig. S5)
[7] = tested on: mouse T-lymphocyte HT-2 cells; details: cited from earlier work

T1 sequence (P01137 279-390 limits assumed, species assumed): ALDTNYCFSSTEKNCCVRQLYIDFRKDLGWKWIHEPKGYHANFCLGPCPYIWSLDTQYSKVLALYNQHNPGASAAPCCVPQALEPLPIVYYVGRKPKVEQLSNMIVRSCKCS

Compound: Cc1cccc(-c2nn3c(c2-c2ccnc4ccc(C(N)=O)cc24)CCC3)n1 [Galunisertib]
inhibition of TβRI by galunisertib (ALK5 (TβRI)): small molecule inhibitor of TβRI
cardiac toxicity in preclinical development [1]: cardiac toxicities identified during preclinical development
activity against off-target kinases (off-target kinases): strong activity against off-target kinases

Compound: NC(=O)c1ccc(-c2nc(-c3ccc4c(c3)OCO4)c(-c3ccccn3)[nH]2)cc1 [SB-431542]
inhibition of ALK5 (TβRI) (ALK5 (TβRI)): small molecule inhibitor of ALK5 (TβRI)
activity against ALK4 (activin receptor ALK4): activity against activin receptors ALK4
activity against ALK7 (activin receptor ALK7): activity against activin receptors ALK4 and ALK7
activity against CK1δ (CK1δ): activity
activity against RIPK2 (RIPK2): activity
activity against p38MAPK (p38MAPK): activity

Compound: CCCCc1nc(Cl)c(CO)n1Cc1ccc(-c2ccccc2-c2nn[nH]n2)cc1 [losartan, reference compound]
direct binding to TGF-β1 or its receptors (TGF-β1 [2]): do not directly bind TGF-β1 or its receptors
activity against TGF-β1, preclinical anti-fibrotic (TGF-β1 [3]): activity against TGF-β1

Compound: Cc1ccc(C(=O)Nc2ccc(S(=O)(=O)O)c3cc(S(=O)(=O)O)cc(S(=O)(=O)O)c23)cc1NC(=O)c1cccc(NC(=O)Nc2cccc(C(=O)Nc3cc(C(=O)Nc4ccc(S(=O)(=O)O)c5cc(S(=O)(=O)O)cc(S(=O)(=O)O)c45)ccc3C)c2)c1 [suramin, reference compound]
direct binding to TGF-β1 or its receptors (TGF-β1 [2]): do not directly bind TGF-β1 or its receptors
activity against TGF-β1, preclinical anti-fibrotic (TGF-β1 [3]): activity against TGF-β1

kon (TGF-β1 [4]): 192000 M⁻¹ s⁻¹
koff (TGF-β1 [4]): 0.0199 s⁻¹
Compound: CIAEIDLIPRDRPF [RIPΔ]

kon (TGF-β1 [4]): 140000 M⁻¹ s⁻¹
koff (TGF-β1 [4]): 0.00836 s⁻¹
Compound: CIAEIDLIPRDRPFV [RIP]

kon (TGF-β1 [4]): 68500 M⁻¹ s⁻¹
koff (TGF-β1 [4]): 0.0352 s⁻¹
Compound: CLIDFRIPADREVPI [Scrambled RIP]

Compound: CPQLGKFGDVRF [RIIP-1]
effect on HT-2 proliferation (fluorescence) vs own scrambled control ([5]; 10 μM soluble peptide, 0.1 ng/mL TGF-β1 (Fig. 2b)): not statistically different between RIIP-1 and its scrambled control

Compound: TGF-β1: most abundant TGF-β isoform in adult tissues and platelets
IC50 of TGF-β1 in the HT-2 proliferation assay ([5]; IL-4 dependent proliferation, fluorescence-based cell viability assay): 0.05 ng/mL
IC50 ([5]; read-out: IC50 of TGF-β1 in the HT-2 proliferation assay (molar), IL-4 dependent proliferation, fluorescence-based cell viability assay): 3.9 pM
inhibition of IL-4 dependent HT-2 proliferation by TGF-β1 ([5]; soluble TGF-β1, fluorescence-based cell viability assay (Fig. 2a)): inhibited IL-4 dependent proliferation in a dose dependent manner
TGF-β1 concentration of highest inhibition of HUVEC proliferation [6]: 41 pg/mL
TGF-β1 concentration of highest inhibition of HUVEC proliferation (molar) [6]: 3.2 pM
TGF-β1 concentration range suppressing HUVEC proliferation [6]: 10 to 1000 ng/mL
published IC50 value of TGF-β1 in HT-2 assay [7]: 0.04 to 0.2 ng/mL

Compound: relaxin
direct binding to TGF-β1 or its receptors (TGF-β1 [2]): do not directly bind TGF-β1 or its receptors
activity against TGF-β1, preclinical anti-fibrotic (TGF-β1 [3]): activity against TGF-β1
